Measured values from PubChem BioAssay (NCI).
Several values for one entry are separate records, joined by “and”; a condition that tells them apart may be missing. Equal values may be shown once.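 Step 1: Grow cells in 96-well plates. Step 2: Expose to compound for 48 hours at 5 concentrations. Step 3: Interpolate endpoints linearly; if unreached, use highest concentration. GI50 is the concentration that inhibits growth by half. TGI: total growth inhibition.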

What was measured:
Assay in all cases: NCI tumour cell line growth inhibition, 48 h
[1] = test system: CAKI-1 renal
[2] = test system: A549 NSCLC
[3] = test system: UO-31 renal
[4] = test system: UACC-257 melanoma
[5] = test system: SK-MEL-28 melanoma
[6] = test system: CCRF-CEM leukemia
[7] = test system: COLO 205 colon
[8] = test system: A498 renal
[9] = test system: SK-OV-3 ovarian
[10] = test system: HCT-116 colon

c1cc(CN2CCCNCCNCCCNCC2)ccc1CN1CCCNCCNCCCNCC1
GI50 [1]: > 100 µM | TGI [1]: > 100 µM | GI50 [2]: > 100 µM | TGI [2]: > 100 µM | GI50 [3]: > 100 µM | TGI [3]: > 100 µM | GI50 [4]: > 100 µM | TGI [4]: > 100 µM | GI50 [5]: > 100 µM | TGI [5]: > 100 µM | GI50 [6]: > 100 µM | TGI [6]: > 100 µM | GI50 [7]: > 100 µM | TGI [7]: > 100 µM | GI50 [8]: > 100 µM | TGI [8]: > 100 µM | GI50 [9]: > 100 µM | TGI [9]: > 100 µM | GI50 [10]: > 100 µM | TGI [10]: > 100 µM

O=c1/c(=C/c2c(O)ccc3ccccc23)sc2nc3ccccc3n12
TGI [1]: > 100 µM | TGI [2]: > 100 µM | TGI [3]: > 100 µM | TGI [4]: > 100 µM | TGI [5]: > 100 µM | TGI [6]: > 100 µM | TGI [7]: > 100 µM | TGI [8]: > 100 µM | TGI [9]: > 100 µM | TGI [10]: > 100 µM

O=C1/C(=C/c2ccc(F)c(F)c2)CN(C(=O)C(Cl)Cl)C/C1=C\c1ccc(F)c(F)c1
GI50 [1]: 0.188 µM | TGI [1]: 0.551 µM | GI50 [2]: 0.262 µM | TGI [2]: 1.09 µM | GI50 [3]: 0.0982 µM | TGI [3]: 0.238 µM | GI50 [4]: 0.259 µM | TGI [4]: 0.888 µM | GI50 [5]: 0.208 µM | TGI [5]: 0.513 µM | GI50 [6]: 0.0266 µM | TGI [6]: > 100 µM | GI50 [7]: 0.175 µM | TGI [7]: 0.756 µM | GI50 [8]: 0.183 µM | TGI [8]: 0.55 µM | GI50 [9]: 0.492 µM | TGI [9]: 1.78 µM | GI50 [10]: 0.0326 µM | TGI [10]: 0.12 µM

CC1(C)OC2CC3COC(=O)C3CC2O1 (centres undefined)
TGI [1]: > 100 µM | TGI [2]: > 100 µM | TGI [3]: > 100 µM | TGI [4]: > 100 µM | TGI [5]: > 100 µM | TGI [6]: > 100 µM | TGI [7]: > 100 µM | TGI [8]: > 100 µM | TGI [9]: > 100 µM | TGI [10]: > 100 µM

Nc1ncn(C2OC(COP(=O)(O)O)C(O)C2O)c(=O)n1 (centres undefined)
TGI [1]: > 100 µM | TGI [2]: > 100 µM | TGI [3]: > 100 µM | TGI [4]: > 100 µM | TGI [5]: > 100 µM | TGI [6]: > 52.4 µM | TGI [7]: > 100 µM | TGI [8]: > 100 µM | TGI [9]: > 100 µM | TGI [10]: > 100 µM

CC(N)Cc1ccc(Cl)cc1 (centres undefined)
TGI [1]: > 100 µM | TGI [2]: > 100 µM | TGI [3]: > 100 µM | TGI [4]: > 100 µM | TGI [5]: > 100 µM | TGI [6]: > 100 µM | TGI [7]: > 100 µM | TGI [8]: > 100 µM | TGI [9]: > 100 µM | TGI [10]: > 100 µM

COC1(OC)C2(Cl)C(Cl)=C(Cl)C1(Cl)C1c3ccc(C(C)=O)c4cccc(c34)C12 (centres undefined)
TGI [1]: > 100 µM | TGI [2]: > 100 µM | TGI [3]: > 100 µM | TGI [4]: > 100 µM | TGI [5]: > 100 µM | TGI [6]: > 79.2 µM | TGI [7]: 34.8 µM | TGI [8]: 32.1 µM | TGI [9]: > 100 µM | TGI [10]: > 100 µM

O=C1C=C2C=CC3CC2(O1)C1CCCCN31 (centres undefined)
GI50 [1]: 17.7 µM and 22.3 µM and 43.3 µM | TGI [1]: 78.8 µM and 79.5 µM and > 100 µM | GI50 [2]: 31.8 µM and 22.9 µM and 64.4 µM | TGI [2]: > 100 µM and 63.4 µM | GI50 [3]: 14.5 µM and 13.8 µM and 38.3 µM | TGI [3]: > 100 µM | GI50 [4]: 25 µM and 13.8 µM and 86.8 µM | TGI [4]: > 100 µM and 66.7 µM | GI50 [5]: 17.3 µM and 13.4 µM and 89.3 µM | TGI [5]: 39 µM and 36.4 µM and > 100 µM | GI50 [6]: 15.3 µM and 11 µM and 28.4 µM | TGI [6]: 96.6 µM and 41.3 µM and 83.3 µM | GI50 [7]: 21.6 µM and 15.1 µM and 58.7 µM | TGI [7]: 73.5 µM and 29.3 µM and > 100 µM | GI50 [8]: 10.3 µM and 28.4 µM and 48.9 µM | TGI [8]: 43.9 µM and 91.5 µM and > 100 µM | TGI [9]: > 100 µM and 58 µM and 90.6 µM | GI50 [10]: 14.2 µM and 12.5 µM and 36.5 µM | TGI [10]: 30.3 µM and 26.6 µM and > 100 µM

Cc1cc(C(=O)Nc2cc(Oc3ccc4nc(NC(=O)C5CC5)cn4n3)ccc2C)n(C)n1
GI50 [1]: > 10 µM | TGI [1]: > 10 µM | GI50 [2]: > 10 µM | TGI [2]: > 10 µM | GI50 [3]: > 10 µM | TGI [3]: > 10 µM | GI50 [4]: > 10 µM | TGI [4]: > 10 µM | GI50 [5]: > 10 µM | TGI [5]: > 10 µM | GI50 [6]: > 10 µM | TGI [6]: > 10 µM | GI50 [7]: > 10 µM | TGI [7]: > 10 µM | GI50 [8]: > 10 µM | TGI [8]: > 10 µM | GI50 [9]: > 10 µM | TGI [9]: > 10 µM | GI50 [10]: 5.66 µM | TGI [10]: > 10 µM

Clc1ccccc1[C@@H]1C[C@@H]2Cc3cc(Br)c4ccccc4c3N1O2
GI50 [1]: 4.18 µM | TGI [1]: > 100 µM | GI50 [2]: 4.91 µM | TGI [2]: > 100 µM | GI50 [3]: 6.05 µM | TGI [3]: > 100 µM | GI50 [4]: 3.77 µM | TGI [4]: > 100 µM | GI50 [5]: 6.92 µM | TGI [5]: > 100 µM | GI50 [6]: 4.87 µM | TGI [6]: > 100 µM | GI50 [7]: 3.95 µM | TGI [7]: 74 µM | GI50 [8]: 3.79 µM | TGI [8]: 60.2 µM | GI50 [9]: 3.79 µM | TGI [9]: > 100 µM | GI50 [10]: 4.1 µM | TGI [10]: > 100 µM

CC/C=C\C[C@H](O)C/C=C1/C(=O)C=C[C@@H]1C/C=C\CCCC(=O)OC(C)C
GI50 [1]: 2.51 µM | TGI [1]: 10.3 µM | GI50 [2]: 2.48 µM | TGI [2]: 5.88 µM | GI50 [3]: 1.84 µM | TGI [3]: 3.84 µM | GI50 [4]: 2.16 µM | TGI [4]: 5.49 µM | GI50 [5]: 1.41 µM | TGI [5]: 3.05 µM | GI50 [6]: 0.425 µM | TGI [6]: 2.53 µM | GI50 [7]: 1.79 µM | TGI [7]: 3.87 µM | GI50 [8]: 3 µM | TGI [8]: 8.12 µM | GI50 [9]: 5.01 µM | TGI [9]: 16.1 µM | GI50 [10]: 0.245 µM | TGI [10]: 0.64 µM

O=C1NC(=O)[C@@]2(CC[C@@H](O)C2)c2ccncc21
TGI [1]: > 100 µM | TGI [2]: > 100 µM | TGI [3]: > 100 µM | TGI [4]: > 100 µM | TGI [5]: > 100 µM | TGI [6]: > 100 µM | TGI [7]: > 100 µM | TGI [8]: > 100 µM | TGI [9]: > 100 µM | TGI [10]: > 100 µM

COc1ccc(C(C#N)=C2C=CC(=NO)C=C2)cc1
GI50 [1]: 4.88 µM | TGI [1]: 15.1 µM | GI50 [2]: 16.5 µM | TGI [2]: 39.8 µM | GI50 [3]: 4.23 µM | TGI [3]: 14.6 µM | GI50 [4]: 10.5 µM | TGI [4]: 30.6 µM | GI50 [5]: 28.7 µM | TGI [5]: 86.7 µM | GI50 [6]: 2.76 µM | TGI [6]: > 100 µM | GI50 [7]: 15.3 µM | TGI [7]: 30 µM | GI50 [8]: 6.39 µM | TGI [8]: 25.4 µM | GI50 [9]: 29.6 µM | TGI [9]: 67.5 µM | GI50 [10]: 2.27 µM | TGI [10]: 5.55 µM

COc1cc(OC)c(/C=C/C(=O)c2ccc(Nc3ncnc4ccccc34)cc2)c(OC)c1
GI50 [1]: 1.31 µM | TGI [1]: 15.2 µM | GI50 [2]: 0.665 µM | TGI [2]: 3.76 µM | GI50 [3]: 1.44 µM | TGI [3]: 3.99 µM | GI50 [4]: 1.24 µM | TGI [4]: 3.89 µM | GI50 [5]: 0.94 µM | TGI [5]: 3.03 µM | GI50 [6]: 0.629 µM | TGI [6]: 5.51 µM | GI50 [7]: 0.614 µM | TGI [7]: 2.22 µM | GI50 [8]: 0.282 µM | TGI [8]: 2.13 µM | GI50 [9]: 1.02 µM | TGI [9]: 2.74 µM | GI50 [10]: 0.45 µM | TGI [10]: 2.04 µM
